{
  "source": "patent US20230332232A1",
  "about": "“COMPOSITIONS AND METHODS FOR DIAGNOSING AND TREATING A DYSTONIA” (Duke University, priority 2020, published 2023)",
  "test_system": "wild-type (WT) murine embryonic fibroblasts (MEFs)",
  "experiment": "Untargeted LC/MS/MS proteomics of EVs from WT MEFs exposed 24 hours to drug, compared with untreated WT MEFs",
  "assay_type": "cell-based, mouse",
  "conditions": "for direction of modulated EV protein expression: WT cells",
  "description": "Methods for isolation and purification of exosomes and extracellular vesicles (EV) were extensively reviewed. Experiments were performed to arrive at a robust and reproducible protocol. The protocol used herein is that set forth in Théry et al, 2006, which is incorporated by reference for it teaching of this protocol. This protocol involves depleting serum-derived EVs from cell culture media by overnight ultracentrifugation and exchanging media for 1% FBS EV-depleted media. Media is then collected from cells following a 24-hour conditioning period and EVs are isolated by 18-hour ultracentrifugation at 100,000 g (FIG. 1A).\nEVs were isolated from media of cultured murine embryonic fibroblasts (MEFs) prepared in-house according to protocols described by Xu 2005 from DYT1 knockin mice (Tor1a^delGAG/+) (Goodchild R E, et al. (2005) Neuron. 48:923-932) and littermate wild-type (WT) controls. The cultured MEFs from the DYT1 mice were exposed for 24 hours to Ritonavir (RTV) while the MEFs from WT mice were exposed to vehicle, ISRIB, or Salubrinal (SAL). The EVs isolated from these WT cells and DYT1 were characterized by untargeted proteomics and RNA-seq to identify differentially expressed proteins and RNAs as candidate biomarkers. Experimenter and Proteomics core staff were blinded to genotype of cell cultures throughout preparation and analysis phases. EV isolation was confirmed by Western immunoblot documenting presence of the exosomal marker (TSG101) and absence of the endoplasmic reticulum (ER) marker (CANX) (FIG. 1B (Cohort 1) and FIG. 1C (Cohort 2)).\nFollowing the bicinchoninic acid assay (BCA) analysis and Western immunoblot of a portion of samples for QC, 11.6 μg-129.2 μg of EV protein lysates in RIPA buffer were sent to the Duke Proteomics and Metabolomics Shared Resource core facility for LC/MS/MS quantitative proteomic analysis. Samples were first normalized to 20 μg and spiked with undigested casein at a total of 40 fmol/μg, 80 fmol/μg, or 160 fmol/μg, then reduced with 10 mM dithiolthreitol for 30 minute at 80° C. and alkylated with 20 mM iodoacetamide for 30 minutes at room temperature. Next, the samples were supplemented with a final concentration of 1.2% phosphoric acid and 741 μL of S-Trap (Protifi) binding buffer (90% MeOH/100 mM […]). Proteins were trapped on the S-Trap, digested using 20 ng/μL sequencing grade trypsin (Promega) for 1 hour at 47° C., and eluted using 50 mM TEAB, followed by 0.2% FA, and lastly using 50% CAN/0.2% FA. All samples were then lyophilized to dryness and resuspended in 40 μL 1% TFA/2% acetonitrile containing 12.5 fmol/μL yeast alcohol dehydrogenase (ADH_YEAST). A QC Pool was created from 3 uL of each sample. All QC Pools were run periodically throughout the acquisition period.\nQuantitative LC/MS/MS was performed on 2 μL of each sample, using a nanoAcquity UPLC system (Waters Corp) coupled to a Thermo Orbitrap Fusion Lumos high resolution accurate mass tandem mass spectrometer (Thermo) via a nanoelectrospray ionization source. Briefly, the sample was first trapped on a Symmetry C18 20 mm×180 μm trapping column (5 μL/min at 99.9/0.1 v/v water/acetonitrile), after which the analytical separation was performed using a 1.8 μm Acquity HSS T3 C18 75 μm×250 mm column (Waters Corp.) with a 90 minute linear gradient of 5% to 30% acetonitrile with 0.1% formic acid at a flow rate of 400 nanoliters/minute (nL/min) with a column temperature of 55° C. Data collection on the Fusion Lumos mass spectrometer was performed in a data-dependent acquisition (DDA) mode of acquisition with a r=120,000 (@ m/z 200) full MS scan from m/z 375-1500 with a target AGC value of 2e5 ions. MS/MS scans were acquired at Rapid scan rate (Ion Trap) with an AGC target of 5e3 ions and a max injection time of 100 ms. The total cycle time for MS and MS/MS scans was 2 seconds. A 20 second dynamic exclusion was employed to increase depth of coverage. The total analysis cycle time for each sample injection was approximately 2 hours. […]",
  "key": {"[1]": {"conditions": "EV protein Prep, Prolyl endopeptidase"}, "[2]": {"conditions": "EV protein Protein transport protein Sec31A"}, "[3]": {"conditions": "EV protein Q8BPB5, EGF-containing fibulin-like ECM protein 1"}, "[4]": {"conditions": "EV protein Q8C878, NEDD8-activating enzyme E1 catalytic subunit"}, "[5]": {"conditions": "EV protein Q8R081, Heterogeneous nuclear ribonucleoprotein 1"}, "[6]": {"conditions": "EV protein Q9D1M4, Eukaryotic translation EF1 epsilon-1"}, "[7]": {"conditions": "EV protein Q62261, Spectrin beta chain, non-crythrocytic 1"}, "[8]": {"conditions": "EV protein Q89051, Integral membrane protein 2B"}, "[9]": {"conditions": "EV protein Regulator of nonsense transcripts 1"}},
  "data": [
    {"smiles": "O=C(COc1ccc(Cl)cc1)NC1CCC(NC(=O)COc2ccc(Cl)cc2)CC1", "note": "(stereo not drawn) [ISRIB]", "values": [
      {"measurement": "ISRIBvWT Z Score", "setting": "EV protein P27612, Phospholipase A-2-activating protein", "value": "−2.39"},
      {"measurement": "ISRIB Direction Same as dE?", "setting": "EV protein P48678, Prelamin-", "value": "yes"},
      {"measurement": "ISRIBvWT Z Score", "setting": "EV protein P48678, Prelamin-", "value": "−0.19"},
      {"measurement": "ISRIBvWT Z Score", "setting": "EV protein P61089, Ubiquitin-conjugating enzyme", "value": 0.41},
      {"measurement": "ISRIBvWT Z Score", "setting": "EV protein Pdia4 (P08003)", "value": 1.37},
      {"measurement": "ISRIBvWT Z Score", "setting": "EV protein Penk (P22005)", "value": "−0.11"},
      {"measurement": "ISRIBvWT Z Score", "setting": "EV protein Plaa P27612", "value": "−2.39"},
      {"measurement": "ISRIBvWT Z Score", "setting": "EV protein Pld3 (Q35405)", "value": 1.18},
      {"measurement": "ISRIB Direction Same as dE?", "setting": "[1]", "value": "yes"},
      {"measurement": "ISRIBvWT Z Score", "setting": "[1]", "value": "−1.11"},
      {"measurement": "ISRIB Direction Same as dE?", "setting": "[2]", "value": "yes"},
      {"measurement": "ISRIBvWT Z Score", "setting": "[2]", "value": "−1.34"},
      {"measurement": "ISRIB Direction Same as dE?", "setting": "EV protein Prpf8 (Q99PV0)", "value": "yes"},
      {"measurement": "ISRIBvWT Z Score", "setting": "EV protein Prpf8 (Q99PV0)", "value": "−0.01"},
      {"measurement": "ISRIB Direction Same as dE?", "setting": "EV protein Psmd1 (Q3TXS7)", "value": "yes"},
      {"measurement": "ISRIBvWT Z Score", "setting": "EV protein Psmd1 (Q3TXS7)", "value": "−0.65"},
      {"measurement": "ISRIBvWT Z Score", "setting": "EV protein Pura (P42669)", "value": 0.52},
      {"measurement": "ISRIBvWT Z Score", "setting": "EV protein Q6X893, Choline transporter-like protein 1", "value": 0.80},
      {"measurement": "ISRIBvWT Z Score", "setting": "EV protein Q8BL97, Serine arginine-rich splicing factor 7", "value": 0.13},
      {"measurement": "ISRIB Direction Same as dE?", "setting": "[3]", "value": "yes"},
      {"measurement": "ISRIBvWT Z Score", "setting": "[3]", "value": 0.07},
      {"measurement": "ISRIB Direction Same as dE?", "setting": "[4]", "value": "yes"},
      {"measurement": "ISRIBvWT Z Score", "setting": "[4]", "value": "−1.68"},
      {"measurement": "ISRIBvWT Z Score", "setting": "EV protein Q8C878 NEDD8-activating enzyme .. subunit", "value": "−1.68"},
      {"measurement": "ISRIB Direction Same as dE?", "setting": "[5]", "value": "yes"},
      {"measurement": "ISRIBvWT Z Score", "setting": "[5]", "value": "−0.32"},
      {"measurement": "ISRIB Direction Same as dE?", "setting": "[6]", "value": "yes"},
      {"measurement": "ISRIBvWT Z Score", "setting": "[6]", "value": "−3.65"},
      {"measurement": "ISRIBvWT Z Score", "setting": "EV protein Q9FS30, Complement C1q tumor necrosis factor-related protein 3", "value": "−0.18"},
      {"measurement": "ISRIBvWT Z Score", "setting": "EV protein Q9Z1Z0, General vesicular transport factor p115", "value": 2.44},
      {"measurement": "ISRIBvWT Z Score", "setting": "EV protein Q9Z2X1 Heterogeneous nuclear ribonucleoprotein E", "value": "−0.18"},
      {"measurement": "ISRIBvWT Z Score", "setting": "EV protein Q78ZA7, Nucelosome assembly protein 1-like 4", "value": 2.43},
      {"measurement": "ISRIBvWT Z Score", "setting": "EV protein Q99KJ8 Dynactin subunit 2", "value": 0.53},
      {"measurement": "ISRIBvWT Z Score", "setting": "EV protein Q922B2 Aspartate--tRNA ligase", "value": "−1.13"},
      {"measurement": "ISRIBvWT Z Score", "setting": "EV protein Q01405 Protein transport protein .. 23A", "value": "−0.95"},
      {"measurement": "ISRIBvWT Z Score", "setting": "EV protein Q60751, Insulin-like growth factor 1 receptor", "value": 0.75},
      {"measurement": "ISRIB Direction Same as dE?", "setting": "[7]", "value": "yes"},
      {"measurement": "ISRIBvWT Z Score", "setting": "[7]", "value": "−0.82"},
      {"measurement": "ISRIB Direction Same as dE?", "setting": "[8]", "value": "yes"},
      {"measurement": "ISRIBvWT Z Score", "setting": "[8]", "value": "−2.13"},
      {"measurement": "ISRIB Direction Same as dE?", "setting": "EV protein Qars (Q8BML9)", "value": "yes"},
      {"measurement": "ISRIBvWT Z Score", "setting": "EV protein Qars (Q8BML9)", "value": "−2.14"},
      {"measurement": "ISRIBvWT Z Score", "setting": "EV protein Rab6a (P35279)", "value": 0.44},
      {"measurement": "ISRIB Direction Same as dE?", "setting": "EV protein Rbbp4 (Q60972)", "value": "yes"},
      {"measurement": "ISRIBvWT Z Score", "setting": "EV protein Rbbp4 (Q60972)", "value": "−1.73"},
      {"measurement": "ISRIB Direction Same as dE?", "setting": "[9]", "value": "yes"},
      {"measurement": "ISRIBvWT Z Score", "setting": "[9]", "value": "−1.84"},
      {"measurement": "ISRIBvWT Z Score", "setting": "EV protein Rpl22 (P67984)", "value": 2.38},
      {"measurement": "ISRIBvWT Z Score", "setting": "EV protein S100a11 (P50543)", "value": 0.33},
      {"measurement": "ISRIBvWT Z Score", "setting": "EV protein Scarb2 (Q35114)", "value": 0.09},
      {"measurement": "ISRIB Direction Same as dE?", "setting": "EV protein Sec23a (Q01405)", "value": "yes"},
      {"measurement": "ISRIBvWT Z Score", "setting": "EV protein Sec23a (Q01405)", "value": "−0.95"},
      {"measurement": "ISRIB Direction Same as dE?", "setting": "EV protein Shmt2 (Q9CZN7)", "value": "yes"},
      {"measurement": "ISRIBvWT Z Score", "setting": "EV protein Shmt2 (Q9CZN7)", "value": "−1.44"},
      {"measurement": "ISRIBvWT Z Score", "setting": "EV protein Shrnt2 Q9CZN7", "value": "−1.44"},
      {"measurement": "ISRIB Direction Same as dE?", "setting": "EV protein Spp1 (P10923)", "value": "yes"},
      {"measurement": "ISRIBvWT Z Score", "setting": "EV protein Spp1 (P10923)", "value": 2.67},
      {"measurement": "ISRIB Direction Same as dE?", "setting": "EV protein Sptan1 (P16546)", "value": "yes"},
      {"measurement": "ISRIBvWT Z Score", "setting": "EV protein Sptan1 (P16546)", "value": "−0.40"},
      {"measurement": "ISRIBvWT Z Score", "setting": "EV protein Ssb (P32067)", "value": 0.41},
      {"measurement": "ISRIB Direction Same as dE?", "setting": "EV protein Ssbp1 (Q9CYR0)", "value": "yes"},
      {"measurement": "ISRIBvWT Z Score", "setting": "EV protein Ssbp1 (Q9CYR0)", "value": "−1.49"},
      {"measurement": "ISRIBvWT Z Score", "setting": "EV protein Svep1 (A2A0A0)", "value": "−0.50"},
      {"measurement": "ISRIB Direction Same as dE?", "setting": "EV protein Tars (Q9D0R2)", "value": "yes"},
      {"measurement": "ISRIBvWT Z Score", "setting": "EV protein Tars (Q9D0R2)", "value": "−1.16"},
      {"measurement": "ISRIBvWT Z Score", "setting": "EV protein Tra2b (P62996)", "value": 0.54},
      {"measurement": "ISRIBvWT Z Score", "setting": "EV protein Vapa (Q9WV55)", "value": 3.18},
      {"measurement": "direction of modulated EV protein expression", "setting": "RTV Therapeutic Efficacy with ISRIB Insensitivity subset, 33 proteins", "value": "in the opposite direction of DYT1 genotype-dependent direction"},
      {"measurement": "direction of modulated EV protein expression", "setting": "RTV Therapeutic Efficacy with ISRIB Sensitivity subset, 121 proteins", "value": "modulated expression in a predicted pathological direction"}
    ]}
  ]
}
